Data as given in patent US5747452A, “Method of modulating tumor cell migration using fibronectin type III peptides” (La Jolla Cancer Research Foundation, priority 1995, dated 1998).

Test system: C11 CHO cells
Assay: Migration assay (in vitro wounding assay)
Type: cell-based, Chinese Hamster
Conditions: 50 μM for 48 hours
Protocol: Migration was tested by using Chinese Hamster Ovary (CHO) cells in an in vitro "wounding" assay as described previously (Giancotti and Ruoslahti, Cell 60,849(1990)). CHO cells are commercially available and have ATCC number CRL 9096. A3 is an overexpressor of the α5 β1 integrin created by cDNA transfection as described in the article cited above. C11 is a control-transfected line expressing only the endogenous CHO α5 β1. As described in Example XIV below, cells were grown in the absence or presence of 50 μM III1 -C for 48 hours, then the culture was "wounded" by removing cells from the plastic dish by scraping the dish with a plastic pipette tip. The migration of the cells into the "wound" path was monitored by photography at various times.
It is known from previous work (see Giancotti and Ruoslahti, (1990), supra) that there is a correlation between an increase in fibronectin matrix assembly and the decrease in tumorigenic phenotype. Since the polypeptides of the present invention including the recombinant polypeptides are able to modulate fibronectin matrix assembly, these proteins were tested to determine if they could modulate the tumorigenic phenotype of cells. […] As a comparison, A3 CHO cells, which do overexpress α5 β1, fibronectin receptors and are less tumorigenic, were grown in parallel. […]

In the case of “III1 -C: Sequence ID No. 11; recombinant protein, residues 600-674 of human fibronectin, from pGEX-2T”, the “effect on cell migration” value is reported as “retardation of their migration”.
